ChEMBL document CHEMBL1201862, “PubChem BioAssay data set” (2004)
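1) Cells in 96-well plates. 2) Compound, 48 h, 5 concentrations. 3) Linear interpolation between surrounding doses. 4) Unreached endpoint = highest concentration. Here, GI50 denotes the concentration required for 50% inhibition of growth.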 The source made the active and inactive calls. Cut-off read from the data, not from the text of the source: active = GI50 up to about 1.1 µM and inactive = higher.

Tests used:
Test in all cases: inhibition of tumour cell growth, NCI panel, 48 h
HCT-116 = test system: HCT-116
HOP-62 = test system: HOP-62
SK-MEL-2 = test system: SK-MEL-2
MDA-N = test system: MDA-N
T47D = test system: T47D
UACC-62 = test system: UACC-62
RXF 393 = test system: RXF 393
SN12C = test system: SN12C
UACC-257 = test system: UACC-257
MDA-MB-231 = test system: MDA-MB-231
NCI-H226 = test system: NCI-H226
DU-145 = test system: DU-145
MOLT-4 = test system: MOLT-4
LOX IMVI = test system: LOX IMVI
OVCAR-3 = test system: OVCAR-3
NCI-H522 = test system: NCI-H522
KM12 = test system: KM12
SF-295 = test system: SF-295
SF-268 = test system: SF-268
CCRF-CEM = test system: CCRF-CEM
A498 = test system: A498
SF-539 = test system: SF-539
EKVX = test system: EKVX
OVCAR-5 = test system: OVCAR-5
SNB-75 = test system: SNB-75
M14 = test system: M14
NCI/ADR-RES = test system: NCI/ADR-RES
HCT-15 = test system: HCT-15
OVCAR-4 = test system: OVCAR-4
SK-MEL-5 = test system: SK-MEL-5
A549 = test system: A549
PC-3 = test system: PC-3
HCC 2998 = test system: HCC 2998
ACHN = test system: ACHN
COLO 205 = test system: COLO 205
NCI-H23 = test system: NCI-H23
K562 = test system: K562
OVCAR-8 = test system: OVCAR-8
SK-MEL-28 = test system: SK-MEL-28
NCI-H460 = test system: NCI-H460
SR = test system: SR
IGROV-1 = test system: IGROV-1
786-0 = test system: 786-0
MDA-MB-435 = test system: MDA-MB-435
CAKI-1 = test system: CAKI-1
Malme-3M = test system: Malme-3M
SW-620 = test system: SW-620
SNB-19 = test system: SNB-19
TK-10 = test system: TK-10
HT-29 = test system: HT-29
RPMI-8226 = test system: RPMI-8226
HOP-92 = test system: HOP-92
UO-31 = test system: UO-31
U-251 = test system: U-251
Hs-578T = test system: Hs-578T
HL-60 = test system: HL-60
MCF7 = test system: MCF7

CCCCCCCCNC(=S)N/C=C1\C(=O)Oc2ccccc2C1=O
GI50 (HCT-116): 15.6 µM (inactive) | GI50 (HOP-62): 13.5 µM (inactive) | GI50 (SK-MEL-2): 22.5 µM (inactive) | GI50 (MDA-N): 18.1 µM (inactive) | GI50 (T47D): 65.8 µM (inactive) | GI50 (UACC-62): 6.85 µM (inactive) | GI50 (RXF 393): 16 µM (inactive) | GI50 (SN12C): 19.8 µM (inactive) | GI50 (UACC-257): 19.1 µM (inactive) | GI50 (MDA-MB-231): 15.9 µM (inactive) | GI50 (NCI-H226): 23.8 µM (inactive) | GI50 (DU-145): 19.2 µM (inactive) | GI50 (MOLT-4): 12.4 µM (inactive) | GI50 (LOX IMVI): 7.05 µM (inactive) | GI50 (OVCAR-3): 12.6 µM (inactive) | GI50 (NCI-H522): 7.19 µM (inactive) | GI50 (KM12): 13.6 µM (inactive) | GI50 (SF-295): 14.1 µM (inactive) | GI50 (SF-268): 10 µM (inactive) | GI50 (CCRF-CEM): 11.1 µM (inactive) | GI50 (A498): 16 µM (inactive) | GI50 (SF-539): 17.6 µM (inactive) | GI50 (EKVX): 28.2 µM (inactive) | GI50 (OVCAR-5): 12.6 µM (inactive) | GI50 (SNB-75): 14.2 µM (inactive) | GI50 (M14): 19.3 µM (inactive) | GI50 (NCI/ADR-RES): 19 µM (inactive) | GI50 (HCT-15): 12.2 µM | GI50 (OVCAR-4): 13.2 µM (inactive) | GI50 (SK-MEL-5): 15.3 µM (inactive) | GI50 (A549): 17.2 µM (inactive) | GI50 (PC-3): 14.4 µM (inactive) | GI50 (HCC 2998): 11.4 µM (inactive) | GI50 (ACHN): 14.8 µM (inactive) | GI50 (COLO 205): 15 µM (inactive) | GI50 (NCI-H23): 21.1 µM (inactive) | GI50 (K562): 16.3 µM (inactive) | GI50 (OVCAR-8): 19.5 µM (inactive) | GI50 (SK-MEL-28): 16.1 µM (inactive) | GI50 (NCI-H460): 14.4 µM (inactive)

O=c1c2cc([N+](=O)[O-])ccc2[nH]n1Cc1ccccn1
GI50 (HCT-116): > 100 µM (inactive) | GI50 (HOP-62): > 100 µM (inactive) | GI50 (SR): > 100 µM (inactive) | GI50 (IGROV-1): > 100 µM (inactive) | GI50 (786-0): > 100 µM (inactive) | GI50 (MDA-MB-435): > 100 µM (inactive) | GI50 (MDA-N): > 100 µM (inactive) | GI50 (UACC-62): > 100 µM (inactive) | GI50 (RXF 393): > 100 µM (inactive) | GI50 (SN12C): > 100 µM (inactive) | GI50 (UACC-257): > 100 µM (inactive) | GI50 (CAKI-1): > 100 µM (inactive) | GI50 (MDA-MB-231): > 100 µM (inactive) | GI50 (NCI-H226): > 100 µM (inactive) | GI50 (Malme-3M): > 100 µM (inactive) | GI50 (DU-145): > 100 µM (inactive) | GI50 (MOLT-4): > 100 µM (inactive) | GI50 (LOX IMVI): > 100 µM (inactive) | GI50 (OVCAR-3): > 100 µM (inactive) | GI50 (SW-620): > 100 µM (inactive) | GI50 (NCI-H522): > 100 µM (inactive) | GI50 (SNB-19): > 100 µM (inactive) | GI50 (KM12): > 100 µM (inactive) | GI50 (TK-10): > 100 µM (inactive) | GI50 (SF-295): > 100 µM (inactive) | GI50 (SF-268): > 100 µM (inactive) | GI50 (CCRF-CEM): > 100 µM (inactive) | GI50 (A498): > 100 µM (inactive) | GI50 (SF-539): > 100 µM (inactive) | GI50 (EKVX): > 100 µM (inactive) | GI50 (HT-29): > 100 µM (inactive) | GI50 (OVCAR-5): > 100 µM (inactive) | GI50 (SNB-75): > 100 µM (inactive) | GI50 (M14): > 100 µM (inactive) | GI50 (RPMI-8226): > 100 µM (inactive) | GI50 (HOP-92): > 100 µM (inactive) | GI50 (NCI/ADR-RES): > 100 µM (inactive) | GI50 (HCT-15): > 100 µM | GI50 (UO-31): > 100 µM (inactive) | GI50 (OVCAR-4): > 100 µM (inactive) | GI50 (SK-MEL-5): > 100 µM (inactive) | GI50 (A549): > 100 µM (inactive) | GI50 (PC-3): > 100 µM (inactive) | GI50 (HCC 2998): > 100 µM (inactive) | GI50 (U-251): > 100 µM (inactive) | GI50 (ACHN): > 100 µM (inactive) | GI50 (COLO 205): > 100 µM (inactive) | GI50 (NCI-H23): > 100 µM (inactive) | GI50 (Hs-578T): > 100 µM (inactive) | GI50 (K562): > 100 µM (inactive) | GI50 (OVCAR-8): > 100 µM (inactive) | GI50 (SK-MEL-28): > 100 µM (inactive) | GI50 (NCI-H460): > 100 µM (inactive) | GI50 (HL-60): > 100 µM (inactive)

Cc1ncc([N+](=O)[O-])n1CCn1ccnc1[N+](=O)[O-]
GI50 (HCT-116): > 100 µM (inactive) | GI50 (HOP-62): > 100 µM (inactive) | GI50 (SR): > 100 µM (inactive) | GI50 (786-0): > 100 µM (inactive) | GI50 (SK-MEL-2): 58.6 µM (inactive) | GI50 (SN12C): 61.7 µM (inactive) | GI50 (UACC-257): > 100 µM (inactive) | GI50 (NCI-H226): > 100 µM (inactive) | GI50 (Malme-3M): 72.1 µM (inactive) | GI50 (MOLT-4): > 100 µM (inactive) | GI50 (OVCAR-3): > 100 µM (inactive) | GI50 (SW-620): 74.6 µM (inactive) | GI50 (NCI-H522): > 100 µM (inactive) | GI50 (KM12): > 100 µM (inactive) | GI50 (TK-10): 15.7 µM (inactive) | GI50 (SF-295): > 100 µM (inactive) | GI50 (SF-268): > 100 µM (inactive) | GI50 (CCRF-CEM): > 100 µM (inactive) | GI50 (A498): 61.9 µM (inactive) | GI50 (SF-539): > 100 µM (inactive) | GI50 (EKVX): 35.2 µM (inactive) | GI50 (HT-29): > 100 µM (inactive) | GI50 (OVCAR-5): > 100 µM (inactive) | GI50 (SNB-75): > 100 µM (inactive) | GI50 (MCF7): > 100 µM (inactive) | GI50 (RPMI-8226): > 100 µM (inactive) | GI50 (HCT-15): > 100 µM | GI50 (SK-MEL-5): 38.3 µM (inactive) | GI50 (A549): 54.2 µM (inactive) | GI50 (PC-3): 80.9 µM (inactive) | GI50 (HCC 2998): > 100 µM (inactive) | GI50 (U-251): > 100 µM (inactive) | GI50 (ACHN): > 100 µM (inactive) | GI50 (NCI-H23): > 100 µM (inactive) | GI50 (Hs-578T): > 100 µM (inactive) | GI50 (K562): > 100 µM (inactive) | GI50 (OVCAR-8): 34.8 µM (inactive) | GI50 (SK-MEL-28): > 100 µM (inactive) | GI50 (NCI-H460): > 100 µM (inactive) | GI50 (HL-60): > 100 µM (inactive)

CC(=O)OCC1OC(O[C@@H]2C[C@H]3C(C)(C)[C@H](OC(C)=O)CC[C@]3(C)[C@H]3CC[C@@H]4[C@]5(CC[C@@]4(C)[C@@]32C)O[C@@H]([C@H](O)C(C)(C)O)C[C@@H]5C)C(O)C(O)C1O (some centres not stated)
GI50 (RXF 393): 4.4 µM (inactive) | GI50 (CAKI-1): 3.23 µM (inactive) | GI50 (U-251): 6.05 µM (inactive)
